Assay results as given in patent US6300364A, “Medicinal compositions with cholesterol-lowering effect” (priority 1997, dated 2001).
Read-outs that look alike come from different tables or passages of the source.

Assays:
PPARα [1] = molecular target: T1, PPARα (Mus musculus, UniProt P23204); assay: GAL4-PPARα reporter (luciferase) activation assay in HepG2 cells; format: cell-based; details: read-out: Relative activity (control = 1) PPARα
T1 construct: mPPARα (Gly^165 -Tyr^467); expressed in transfected cells; host or cells: HepG2
T1 sequence (P23204 165-468 limits assumed): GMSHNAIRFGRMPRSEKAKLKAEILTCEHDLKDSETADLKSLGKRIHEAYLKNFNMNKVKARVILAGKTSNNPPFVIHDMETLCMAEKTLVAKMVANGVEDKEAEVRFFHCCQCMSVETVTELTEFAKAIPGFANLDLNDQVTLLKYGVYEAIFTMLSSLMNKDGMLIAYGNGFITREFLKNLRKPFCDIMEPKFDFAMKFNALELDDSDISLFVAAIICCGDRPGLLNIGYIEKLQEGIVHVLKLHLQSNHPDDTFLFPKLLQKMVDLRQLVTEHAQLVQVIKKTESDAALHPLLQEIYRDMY

PPARδ [2] = molecular target: T2, PPARδ (Mus musculus, UniProt P35396); assay: GAL4-PPARδ reporter (luciferase) activation assay in HepG2 cells; format: cell-based; details: for fold induction at 100 µM: read-out: Relative activity (control = 1) PPARδ; for PPARδ-activating effect (in words): conclusion from Table 1
T2 construct: mPPARδ (Met^137 -Tyr^439); expressed in transfected cells; host or cells: HepG2
T2 sequence (P35396 137-440 limits assumed): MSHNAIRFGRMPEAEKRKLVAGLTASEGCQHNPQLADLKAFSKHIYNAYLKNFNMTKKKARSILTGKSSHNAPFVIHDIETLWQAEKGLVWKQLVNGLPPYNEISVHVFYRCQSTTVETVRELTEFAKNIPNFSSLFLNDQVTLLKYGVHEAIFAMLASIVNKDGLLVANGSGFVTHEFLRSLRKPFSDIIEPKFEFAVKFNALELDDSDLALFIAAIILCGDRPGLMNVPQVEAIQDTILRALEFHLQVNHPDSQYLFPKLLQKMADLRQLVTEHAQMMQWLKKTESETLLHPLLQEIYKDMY

PPARγ = molecular target: T3, PPARγ (Mus musculus, UniProt P37238); assay: GAL4-PPARγ reporter (luciferase) activation assay in HepG2 cells; details: for fold induction at 100 µM: HepG2, 48 h, read-out: Relative activity (control = 1) PPARγ; for PPARγ-activating effect (in words): conclusion from Table 1
T3 sequence (P37238 202-505): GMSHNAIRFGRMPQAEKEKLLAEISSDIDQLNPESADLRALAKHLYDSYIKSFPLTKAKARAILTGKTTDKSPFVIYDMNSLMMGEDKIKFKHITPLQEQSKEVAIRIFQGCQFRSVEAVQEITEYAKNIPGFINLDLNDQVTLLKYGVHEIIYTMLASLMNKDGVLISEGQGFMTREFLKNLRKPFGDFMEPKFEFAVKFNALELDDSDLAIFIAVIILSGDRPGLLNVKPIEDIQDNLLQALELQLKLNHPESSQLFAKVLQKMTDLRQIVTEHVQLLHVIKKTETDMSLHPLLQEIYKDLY
Text: To identify a compound having a PPARδ and PPARγ ligand effect, fused gene expression vectors of the DNA-binding domain (GAL4-DNA bindgn domain, GAL4-DBD) of a yeast transcription activated protein and the PPAR ligand binding domains (LBDs) were constructed. Three activation vectors thus constructed were named GAL-PPARα, GAL-PPARδ and GAL-PPARγ respectively.
i) Ligand binding domains (PPAR-LBDs) of mouse peroxisome-proliferator-activated receptors (mPPARα, mPPARδ and mPPARγ) were each amplified by PCR (polymerase chain reaction). As a template employed in the amplification, total RNA was prepared from a fat tissue around mouse epididymis with the use of a total RNA extracting reagent Isogen (manufactured by Nippon Gene) in accordance with the attached manufacturer's instruction. […] PCR was performed by using GeneAmp PCR System Model 9600.
ii) Into one side of each primer thus synthesized, a recognition sequence of a restriction enzyme SmaI or BamHI had been preliminarily inserted so that the primer could be cleaved with the restriction enzyme. After the amplification, the PCR fragment was ligated with pGBT9 DNA-Binding Domain Vector (5.5 kb, having the GAL4-DBD domain and an ampicillin resistance gene Amp^R sequence, manufactured by Clontech) and the vector thus formed was named pGBT9-PPAR-LBD.
iii) A fused gene domain (GAL4-DBD+PPAR-LBD) wherein GAL4-DBD contained in pGBT9-PPAR-LBD was legated to PPARLBD was excised by using HindIII/SalI and transferred into the multiple cloning site (MCS) of an expression vector pZeoSV (3.5 kb, having zeocin resistance gene Zeo^R sequence, manufactured by Clontech) by using HindIII/Xhol. The thus obtained chimeric expression vectors of GAL4-DBD ad PPAR-LBD were named respectively GAL-PPARα, GAL-PPARδ and GAL-PPARγ.
i) DNA sequences were synthesized by using a DNA synthesizer (Beckman DNA Synthesizer oligo1000M, manufactured by Beckman) by repeating the GAL4-DBD binding sequence (GAL4 responsive element, RE or UASG) once (RE×1) or thrice (RE×3). Then appropriate restriction enzyme cites were introduced into both ends and these sequences were ligated together to give a 4-repetition sequence fragment (RE×4). Further, an 8-repetition sequence fragment (RE×8) was formed by using the same.
ii) A DNA sequence wherein TATA box was ligated to the above GAL4 responsive sequence (RE×8) was formed by PCR and then inserted into the 5'-side upstream of the luciferase gene sequence (RE-LUC) in a vector for luciferae assay system (Pica Gene Vector-2, (PGV-B2), Toyo Ink Mfg.). […] RE-LUC containing RE×8 was transferred into cells together with GAL-PPARγ. Then CS-045 (troglitazone), i.e., the ligand of PPARγ was added.
By using the activation vectors and reporter vectors constructed in the above (1) and (2), the PPAR activation effect of a compound was measured by a method involving the following three steps: i) Cotransfection of construction into a host; ii) treatment of cells by adding the compound; and iii) assay of the reporter gene expression level.
HepG2 cells (American Type Culture Collection, Maryland, USA) was inoculated into a collagen type IV treated 96-well plate (manufactured by Iwaki) at a cell density of 1×10^4 /well and incubated for 2 days in the presence of Dulbecco's modified Eagle medium containing 10% of fetal calf serum (FCS) (200 μl/well, FCS-DMEM (GIBCO BRL)). Next, the cells were washed with 100 μl/well of a cell incubation medium (OPTI-MEM I Reduced Serum Medium, manufactured by GIBCO BRL) maintained at 37° C.

[3] = Test for evaluating cholesterol-lowering effect by using rhesus monkey; format: in vivo; details: for Decrease in LDL-C (LDL-cholesterol level) / Decrease in TC (serum total cholesterol level): male rhesus monkeys, 30 mg/kg/day in feed, 2 weeks, compared with data before the administration; for Effect of lowering serum total cholesterol level, in particular LDL-cholesterol level (in words): rhesus monkeys, conclusion from Table 2
Method: A test for evaluating cholesterol-lowering effect was performed by using rhesus monkeys in accordance with a method described in Br. J. Pharmacol., 118, p.174-178, 1996.
i) Male rhesus monkeys weighing about 4.5 to 5 kg (Purchased from Hamri) were fed by giving twice a day 50 g/day of a solid feed, which had been prepared by adding 50 ml of water and vitamin C (5 mg/kg/day, manufactured by Sigma) to 50 g of Purina powdery feed (Code #5408, manufactured by Oriental Yeast) and solidifying the mixture, and about 100 g of banana.
ii) The monkeys having been accustomed to the control feed were divided into a control group having 4 animals and test groups each having 3 animals. The animals of the […] were fed with the control feed. On the other hand, the animals of one test group were fed with a composition feed containing 30 mg/kg/day of YM-16683, while those of the other test group were fed with a composition feed containing 30 mg/kg/day of the compound of Production Example 1, each twice a day. To avoid unfinished feeding, banana was given to the animals after taking 50 g of each feed.
iii) The groups were fed with respective feeds for 2 weeks. About 16 hours before the day before the final administration, the animals were fasted and the blood samples were collected from thigh. After measuring body weight, blood collection was performed twice, i.e., before and after the administration of the test compound. Each blood sample thus collected was heparinized and serum was separated therefrom. Next, the total cholesterol level (TC) and LDL-cholesterol level (LDL-C) were measured by the enzymatic method with the use of an automatic analyzer (Model 736-10, Hitachi) (Table 2).
Decrease was calculated by comparing the data before the administration.

PPARα [4] = details: literature report; cited from earlier work
PPARδ [5] = details: literature report; cited from earlier work
[6] = cited from earlier work
[7] = cited from earlier work; for Decrease in serum cholesterol level: normal subjects
[8] = test compound 10^-4 M, HepG2 cells, 48 hours, luciferase activity corrected by β-galactosidase, DMSO control = 1.0

## CCc1ccc(CCOc2ccc(CC3SC(=O)NC3=O)cc2)nc1 (centres unmarked) [Pioglitazone]
PPARα [1]; HepG2, 48 h
  fold induction at 100 µM: 1.5
PPARδ [2]; HepG2, 48 h
  fold induction at 100 µM: 1.4

## CCCc1c(OCCCOc2ccc(CC(=O)O)cc2)ccc(C(C)=O)c1O [Production Example 1, p-[3-(4-acetyl-3-hydroxy-2-propylphenoxy)propoxy]phenylacetic acid]
PPARα [1]; [8]
  fold induction at 100 µM: 0.6
PPARδ [2]
  PPARδ-activating effect (in words): effect of activating PPARδ and PPARγ
PPARδ [2]; [8]
  fold induction at 100 µM: 83.5
PPARγ
  fold induction at 100 µM: 10.3
  PPARγ-activating effect (in words): effect of activating PPARδ and PPARγ
[3]
  Decrease in LDL-C (LDL-cholesterol level): 34%
  Decrease in TC (serum total cholesterol level): 29%
  Effect of lowering serum total cholesterol level, in particular LDL-cholesterol level (in words): excellent effect of lowering serum total cholesterol level, in particular, LDL-cholesterol level

## Cc1cccc(Nc2cc(Cl)nc(SCC(=O)O)n2)c1C [Wy 14,643, prinixic acid]
PPARγ
  fold induction at 100 µM: 1.8
PPARα [4]
  PPARα activation / ligand activity (in words): ligand specific to PPARα

## CCCCC[C@H](O)/C=C/[C@@H]1[C@H]2C/C(=C/CCCC(=O)O)C[C@H]2C[C@H]1O [cPGI2, carbaprostacyclin]
PPARα [1]; HepG2, 48 h
  fold induction at 100 µM: 15.2
PPARδ [2]; HepG2, 48 h
  fold induction at 100 µM: 34
PPARγ
  fold induction at 100 µM: 1.6
PPARα [4]
  PPARα activation / ligand activity (in words): has activities of both of PPARα and PPARδ ligands
PPARδ [5]
  PPARδ activation / ligand activity (in words): has activities of both of PPARα and PPARδ ligands

## CCC(C)(C)C(=O)O[C@H]1C[C@@H](C)C=C2C=C[C@H](C)[C@H](CC[C@@H]3C[C@@H](O)CC(=O)O3)[C@H]21 [simvastatin]
[6]; patient with hyperlipemia, total serum cholesterol level of 220 mg/dl or above
  Decrease in serum cholesterol level: about 20%
[6]; phase I clinical test, normal subjects, about 1 week after the initiation of the administration
  Decrease in serum cholesterol level: about 20%

## CCCCC[C@H](O)/C=C/[C@@H]1[C@H]2C/C(=C/CCCC(=O)O)O[C@H]2C[C@H]1O [PGI2, prostacyclin]
PPARα [4]
  PPARα activation / ligand activity (in words): activates neither PPARα nor PPARδ
PPARδ [5]
  PPARδ activation / ligand activity (in words): activates neither PPARα nor PPARδ

## CCCc1c(OCCCSc2nnc(SCC(=O)O)s2)ccc(C(C)=O)c1O [YM-16638]
PPARα [1]; [8]
  fold induction at 100 µM: 1
PPARδ [2]
  PPARδ-activating effect (in words): effect of activating PPARδ and PPARγ
PPARδ [2]; [8]
  fold induction at 100 µM: 46.2
PPARγ
  fold induction at 100 µM: 2.5
  PPARγ-activating effect (in words): effect of activating PPARδ and PPARγ
[3]
  Decrease in LDL-C (LDL-cholesterol level): 14%
  Decrease in TC (serum total cholesterol level): 33%
  Effect of lowering serum total cholesterol level, in particular LDL-cholesterol level (in words): excellent effect of lowering serum total cholesterol level, in particular, LDL-cholesterol level
[7]; humans
  Effect of lowering serum triglyceride level (in words): only a weak effect
[7]; administration dose 60 mg
  Decrease in serum cholesterol level: about 26%
[7]; administration dose 120 mg
  Decrease in serum cholesterol level: ~41%

## CCOC(=O)C(C)(C)Oc1ccc(Cl)cc1 [Clofibrate]
PPARα [1]; HepG2, 48 h
  fold induction at 100 µM: 2.2
PPARδ [2]; HepG2, 48 h
  fold induction at 100 µM: 1.3
PPARγ
  fold induction at 100 µM: 0.9
